What was measured:
[1] = system: DF-15(R) (multiple myeloma) cells; experiment: Murine orthotopic DF-15(R) tumor model (resistant), anti-BCMA CAR T cells plus Compound A; type: in vivo, mouse; conditions: combination
Description: Anti-tumor effects of anti-BCMA CAR T cells, alone and in combination with concurrent or delayed administration of Compound A (iberdomide, (S)-3-[4-(4-morpholin ylmethyl-benzyloxy)-1-oxo-1,3-dihydro-isoindol-2-yl]-piperidine-2,6-dione), were assessed in disseminated tumor models. The combinatorial effects were assessed in both tumor models sensitive to and resistant to the immunomodulatory compound. The anti-BCMA CAR T cells used in the study were produced as described in Example 1.
The effects of anti-BCMA CAR-T cells in combination with Compound A was assessed in a murine orthotopic tumor model using DF-15(R) cells, which is a tumor model that is resistant to the immunomodulatory compound. Mice (NOD.Cg-Prkdc^scidIL-2rg^tm1Wj1/SzJ mice (NSG; Jackson Labs)) were injected intravenously (i.v.) with 2×10^6 DF-15(R) (multiple myeloma) cells transfected with firefly luciferase ([…]). Tumor engraftment was allowed to occur for 13 days prior to staging (14 days before CAR-T cell administration) and verified using bioluminescence imaging.
In one study, mice were administered Compound A (1 mg/kg or 3 mg/kg) via oral administration once a day starting from the day before administration of 0.5×10^6 anti-BCMA CAR T cells, and administration of Compound A was continued once a day until 32 days post-CAR T cell administration (concurrent dosing). […]
For bioluminescence imaging (BLI), mice received intraperitoneal (i.p.) injections of luciferin substrate (CaliperLife Sciences, Hopkinton, Mass.) resuspended in PBS (15 μg/g body weight). The average radiance (p/s/cm^2/sr) was determined. Survival of mice treated as described above were assessed and compared over time post-infusion of CAR-expressing T cells. […]
The numbers of CD3+ CAR T cells were determined in the blood at day 6 and day 14 by flow cytometry using antibodies directed against CD3 and the surrogate marker on the CAR-expressing cells.

Ikaros = experiment: Intracellular Ikaros expression in BCMA-bead stimulated anti-BCMA CAR T cells (flow cytometry, MFI); type: cell-based, human
Description: A BCMA-Fc fusion protein containing the extracellular domain of human BCMA and a human IgG1Fc was conjugated to beads by covalently coupling to the surface of commercially available tosyl-activated magnetic beads having a diameter of approximately […] (M-450 beads, ThermoFisher, Waltham Mass.) (see e.g. International published PCT App. No. WO2019/027850). Following incubation, anti-BCMA CAR-expressing T cells were stained with antibodies and analyzed by flow cytometry to assess intracellular levels of Ikaros and Aiolos in CD4+CAR+ or CD8+CAR+ cells, as measured by median fluorescence intensity (MFI). Median fluorescence intensity (MFI) values for Ikaros and Aiolos were normalized and calculated as a percentage relative to vehicle control.

OPM2 target cells = experiment: Acute co-culture cytokine secretion of anti-BCMA CAR T cells with OPM2; type: cell-based, human; conditions: OPM2, E:T 1:1, 24 hours, 0.01-10,000 nM, FIG. 2B
Description: Anti-tumor effects of anti-BCMA CAR T cells, alone and in combination with cell immunomodulatory compounds Compound A (iberdomide, (S)-3-[4-(4-morpholin-4-ylmethyl-benzyloxy)-1-oxo-1,3-dihydro-isoindol-2-yl]-piperidine-2,6-dione) or Compound B ((S)-4-(4-(4-(((2-(2,6-dioxopiperidin-3-yl)-1-oxoisoindolin-4-yl)oxy)methyl)benzyl)piperazin-1-yl)-3-fluorobenzonitrile), were assessed in two different BCMA-expressing target multiple myeloma cell lines RPMI-8226 or OPM-2. Anti-BCMA CAR+ T cells were generated as described in Example 1.
The anti-BCMA CAR-expressing T cells were incubated with target cells, RPMI 8226 (BCMA^med human multiple myeloma cell line) or OPM2 cells (BCMA^med human multiple myeloma cell line) target cells, at an E:T ratio of 1:1. The co-culture incubation with target cells was carried out in the presence of Compound A (0.01 nM, 0.1 nM, 1 nM, 10 nM, 100 nM, 1000 nM, or 10,000 nM) or Compound B (0.01 nM, 0.1 nM, 1 nM, 10 nM, 100 nM, 1000 nM, or 10,000 nM).
Cytokine secretion of IL-2, TNFα and IFN-gamma cytokines from cell culture supernatant of the co-cultures after 24 hours of incubation with targets cells was determined. Co-culture of anti-BCMA CAR+ T cells with Compound A enhanced the CAR T cytokine production both against RPMI-8226 target cells (FIG. 2A) and OPM2 target cells (FIG. 2B).

## O=C1CC[C@H](N2Cc3c(OCc4ccc(CN5CCOCC5)cc4)cccc3C2=O)C(=O)N1 [Compound A, (S)-3-[4-(4-morpholin-4-ylmethyl-benzyloxy)-1-oxo-1,3-dihydro-isoindol-2-yl]-piperidine-2,6-dione]
[1]; concurrent dosing, 1 or 3 mg/kg oral, FIG. 7A
  tumor burden (BLI) versus anti-BCMA CAR T cells alone: reduce tumor burden
[1]; concurrent dosing, FIG. 7B
  survival versus anti-BCMA CAR T cells alone: improve survival
[1]; concurrent regimen, low and high dose, day 6 and day 14, FIG. 7C
  numbers of CD3+ CAR+ T cells in the blood: statistically significant increase
Ikaros; CD4+CAR+ or CD8+CAR+ cells, 24 or 72 hours, lenalidomide 1000 nM, Compound A 1, 10, 100 nM, Compound B 0.1, 1, 10 nM
  intracellular Ikaros expression (MFI, percentage relative to vehicle control): concentration dependent decrease
Ikaros; stimulated anti-BCMA CAR T cells
  potency in decreasing Ikaros and Aiolos expression, compared with lenalidomide: more potent than lenalidomide
OPM2 target cells
  CAR T cytokine production (IL-2, TNFα, IFN-gamma in supernatant): enhanced

Reference: US20230165872A1, “COMBINATION OF BCMA-DIRECTED T CELL THERAPY AND AN IMMUNOMODULATORY COMPOUND” (Juno Therapeutics, Inc., priority 2020, published 2023)
